“Also recorded” adds a separate entry of the source.
What was measured:
F11 cells = assay: Cell viability assay in F11 neuronal cells; details: 24 h, 5–20 µM
Method: For the subsequent experiments, DF2726A was used at a final concentration of 1 µM, and oxaliplatin at a final concentration of 20 µM. For comparison, paclitaxel alone or in combination with DF2726A was also used.
F11 hybridoma cells (ECACC 08062601), chosen as a model of DRG neurons[22],[32],[33] were cultivated in DMEM (Euroclone, Milan, Italy) supplemented with 10% FBS (Sigma-Aldrich, St. Louis, MO, USA), 1% penicillin/streptomycin (Euroclone, MI, Italy) and 1% glutamine (Euroclone) at 37 °C, in humidified 95% air with 5% CO2 atmosphere. For all the experiments, cells were used at 18th passage.
Supplementary Fig. 2: Effect of DF2726A, oxaliplatin and paclitaxel treatment on neuronal cell
viability. Cell viability assay of F11 cells after treatment at different concentrations of DF 2726A
(DF; 1-20 µM), oxaliplatin (OXA, 5-60 µM), paclitaxel (PAC, 5-20 nM) and the combination of 20
µM oxaliplatin+DF2726A (Oxa+DF) and paclitaxel+DF2726A (PAC+DF) at 24 h. Data are means

p-ERK1/2 = p-ERK1/2 western blotting in F11-derived neurons; type: cell-based; details: DF2726A 1 µM + oxaliplatin 20 µM, 24 h
Method: Following neuronal differentiation, neurons were treated for 24 h with DF2726A (1 μM final concentration), oxaliplatin (Sigma-Aldrich; 20 µM final concentration), or the combination of the two molecules.
Control and treated cells were collected and lysed in ice-cold RIPA buffer (PBS pH 7.4 containing 0.5% sodium deoxycolate, 1% Igepal, 0.1% SDS, 5 mM EDTA, 1% protease and phosphatase inhibitor cocktails; Sigma-Aldrich) as described in[22],[33]. Protein lysates (30 μg) were separated on 8–12% SDS-polyacrilamide gel and electroblotted onto polyvinyldifluoride membrane (PVDF; Sigma-Aldrich). Nonspecific binding sites were blocked by 5% non-fat dry milk (Bio-Rad Laboratories, Hercules, CA, USA) in Tris buffered saline (TBS: 20 mM Tris- HCl, pH 7.4, containing 150 mM NaCl) for 30 min at RT. […] The relative densities of immunoreactive bands were determined and normalized HRP-conjugated β-actin, using ImageJ software. […]

IL-8/CINC1 = IL-8/CINC1 immunofluorescence of paw sections of oxaliplatin rats; type: in vivo, male Wistar rats; details: 30 mg/kg os, rat paw sections
Method: Animals were sacrificed and a biopsy (3 mm) was taken from pad of the right hind paw. Biopsies were immediately placed in Zamboni’s fixative, where they were left at 4 °C. Tissues were then transferred to 20% sucrose for at least 24 h and used for immunohistochemistry analysis. Specimens were frozen in Optimal Cutting Temperature compound (OCT, Sakura Finetek Inc, CA, USA) and sliced into 20 μm thick serial coronal sections by cryostat AMES LAB-TEK (Westmont, Illinois, USA). […]
Five slices were examined for each animal. For each slide, 4 fields were counted. For quantitative evaluation of IL-8/CINC-1 (the homolog of IL-8 in rat) and […], photomicrographs for each condition were analysed by ImageJ software (National Institutes of Health, Bethesda, MD, USA) as previously described. […] The signal was first measured on the tissue in an area devoid of signal at visual inspection and assumed as background; the threshold was then set at 1.5 times the background and the surface area and mean grey intensity were measured for all areas above the threshold. […]

human COX2 = molecular target: T1, human COX2 (Homo sapiens, UniProt P35354); assay: COX2 assay, PGE2 formation from arachidonic acid, recombinant enzyme; type: biochemical
T1 construct: host or cells: Sf-9
Method: Protein binding in human, dog and rat plasma […]
in DMSO at a final concentration of 2 mM. […]
plasma to obtain a final concentration of 10 µM. Human, dog and rat plasma (200 µL) in triplicate […]
vials for LC-MS/MS analysis. […]
mM Tris-HCl (pH 8.0), 1.98 mM phenol and 1.02 µM hematine. Thereafter, the reaction was initiated by adding 4 µM (COX1) or 2 µM (COX2) of arachidonic acid and the mixture was incubated for 5 min at RT. For basal control measurements, arachidonic acid was omitted from the reaction mixture. Following incubation, t he reaction was stopped by the addition of 1 M HCl then 1 M Tris/HCl (pH 8.0) followed by cooling to 4°C.
The fluorescence acceptor (d2 labeled PGE2) and the fluorescence donor (anti -PGE2 antibody labeled with europium Cryptate) were then added. After 120 min, the fluorescence transfer corresponding to the amount of residual PGE2 was measured at λex=337 nm, λem=620 nm and λem=665 nm using a microplate reader (Envision, Perkin Elmer). The enzyme activity was determined by dividing the signal measured at 665 nm by that measured at 620 nm (ratio). The results were expressed as a percent age inhibition of the control enzyme activity. The standard inhibitory reference compound was Diclofenac, which was tested in each experiment at several concentrations to obtain an inhibition curve from which its IC50 value was calculated. […]

T1 sequence (P35354 18-604): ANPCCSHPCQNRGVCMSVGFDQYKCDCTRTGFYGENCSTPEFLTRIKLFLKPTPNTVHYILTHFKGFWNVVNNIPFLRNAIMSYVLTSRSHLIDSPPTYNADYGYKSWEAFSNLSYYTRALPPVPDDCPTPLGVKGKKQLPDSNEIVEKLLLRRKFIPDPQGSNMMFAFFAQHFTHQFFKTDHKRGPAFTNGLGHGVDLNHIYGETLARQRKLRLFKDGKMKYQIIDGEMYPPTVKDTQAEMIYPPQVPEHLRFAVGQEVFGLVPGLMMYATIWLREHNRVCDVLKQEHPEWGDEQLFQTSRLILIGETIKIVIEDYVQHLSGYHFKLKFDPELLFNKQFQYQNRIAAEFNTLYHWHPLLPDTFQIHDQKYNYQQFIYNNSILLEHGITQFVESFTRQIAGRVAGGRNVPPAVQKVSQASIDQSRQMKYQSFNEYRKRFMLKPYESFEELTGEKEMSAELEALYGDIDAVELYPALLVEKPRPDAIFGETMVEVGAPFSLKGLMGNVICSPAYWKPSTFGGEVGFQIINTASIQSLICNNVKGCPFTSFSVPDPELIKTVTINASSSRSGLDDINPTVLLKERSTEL

Compound: CC(C)(C(=O)O)c1ccc(Nc2nc(C(F)(F)F)cs2)cc1 [DF2726A]
- Neuronal cell viability (F11 cells): ineffective in modulating neuronal cell viability
- p-ERK1/2 protein levels, oxaliplatin-treated neurons (p-ERK1/2): comparable to those of control cells
- Effect on oxaliplatin-increased IL-8/CINC1 signalling in the dermis (IL-8/CINC1): significantly attenuated
- COX 2 Inhibition (50 µM) (human COX2): did not inhibit; also recorded: No Inhibition observed

Reference: publication PMC6692352, “DF2726A, a new IL-8 signalling inhibitor, is able to counteract chemotherapy-induced neuropathic pain” (Scientific Reports, 2019)
